Data on one compound can be found in patent US8835134B2, “Cycloastragenol monoglucoside, preparation, pharmaceutical composition and application thereof” (Tianjin Institute of Pharmaceutical Research, priority 2007, dated 2014).

A short description of the data set: Oral absorption.

On to `CC(C)(O)[C@@H]1CC[C@](C)([C@H]2[C@@H](O)C[C@@]3(C)C4C[C@H](OC5OC(CO)C(O)C(O)C5O)C5C(C)(C)[C@@H](O)CC[C@@]56C[C@@]46CC[C@]23C)O1` (stereo partly drawn) [CMG, Cycloastragenol-6-O-β-D-glucoside], for which the oral absorption result is on record as “good oral absorption properties”.
